Here are results for eight compounds from PMC4358768 (Journal of medicinal chemistry, 2011).

In one series the target is T1, human e-NPP1 (Homo sapiens, UniProt P22413).
T1 sequence (P22413 1-925): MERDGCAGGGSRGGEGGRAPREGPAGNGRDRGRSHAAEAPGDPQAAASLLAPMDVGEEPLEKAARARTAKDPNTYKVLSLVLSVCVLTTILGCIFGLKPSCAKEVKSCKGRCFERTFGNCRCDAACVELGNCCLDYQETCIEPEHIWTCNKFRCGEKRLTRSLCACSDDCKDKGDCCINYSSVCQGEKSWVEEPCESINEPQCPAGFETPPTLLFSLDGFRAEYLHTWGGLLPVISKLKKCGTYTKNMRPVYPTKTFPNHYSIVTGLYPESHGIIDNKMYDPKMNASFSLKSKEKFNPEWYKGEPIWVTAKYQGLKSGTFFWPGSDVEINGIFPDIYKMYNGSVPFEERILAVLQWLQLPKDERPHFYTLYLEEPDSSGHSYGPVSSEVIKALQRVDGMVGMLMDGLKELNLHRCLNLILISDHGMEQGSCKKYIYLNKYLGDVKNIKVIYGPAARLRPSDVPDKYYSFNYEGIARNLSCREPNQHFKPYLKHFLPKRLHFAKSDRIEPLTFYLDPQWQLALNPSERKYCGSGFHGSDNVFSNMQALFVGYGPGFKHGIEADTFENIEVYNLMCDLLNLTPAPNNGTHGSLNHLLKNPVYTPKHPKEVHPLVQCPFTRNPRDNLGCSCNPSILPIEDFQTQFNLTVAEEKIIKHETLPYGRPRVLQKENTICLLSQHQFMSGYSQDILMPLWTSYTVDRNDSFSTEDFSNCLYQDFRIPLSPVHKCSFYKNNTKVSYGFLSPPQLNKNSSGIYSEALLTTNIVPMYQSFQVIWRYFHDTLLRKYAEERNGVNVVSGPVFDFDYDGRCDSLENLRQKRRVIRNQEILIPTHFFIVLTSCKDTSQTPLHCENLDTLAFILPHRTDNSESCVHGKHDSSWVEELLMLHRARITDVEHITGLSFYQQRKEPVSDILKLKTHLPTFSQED
Description: Hydrolysis of dinucleotides by human e-NPP1. It counts as in vitro ADME. The note with it: over 20 min at 37 °C, pH 8.5.

A further series deals with tP2Y1 receptor (Meleagris gallopavo, UniProt P49652). Description: [Ca2+]i elevation in 1321N1 astrocytoma cells expressing turkey P2Y1 receptor. It is filed as cell-based. The note with it: 1321N1 astrocytoma cells stably transfected with turkey P2Y1 receptor, fura-2, 37 °C; for EC50: read-out: EC50 for [Ca2+]i elevation, P2Y1.
Chain of tP2Y1 receptor (P49652 whole entry): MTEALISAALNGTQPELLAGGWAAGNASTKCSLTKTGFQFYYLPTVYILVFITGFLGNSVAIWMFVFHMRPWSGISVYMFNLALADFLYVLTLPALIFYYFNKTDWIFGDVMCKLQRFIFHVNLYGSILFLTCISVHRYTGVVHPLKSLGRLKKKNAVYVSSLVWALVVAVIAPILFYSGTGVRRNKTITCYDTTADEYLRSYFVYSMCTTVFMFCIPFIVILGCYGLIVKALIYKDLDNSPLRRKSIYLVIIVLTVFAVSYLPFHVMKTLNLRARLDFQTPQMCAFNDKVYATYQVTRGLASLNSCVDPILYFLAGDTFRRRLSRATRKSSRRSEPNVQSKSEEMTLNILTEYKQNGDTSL
The next series concerns P2Y2R. The note with it: read-out: EC50 at P2Y2R; cited from earlier work.
Another series addresses rP2Y1-GFP receptor. The note with it: read-out: EC50 at P2Y1R (rP2Y1-GFP receptor); cited from earlier work.

SMILES strings stand for the structures.

Regarding `BP(=O)(OC[C@H]1O[C@@H](n2ccc(=O)[nH]c2=O)[C@H](O)[C@@H]1O)OP(=O)(O)OP(=O)(O)OC[C@H]1O[C@@H](n2ccc(=O)[nH]c2=O)[C@H](O)[C@@H]1O` (some centres unmarked) [Analogue 11A, P^1-Borano-P^1,P^3-5′-diuridinetriphosphate], at human e-NPP1, the “percentage of the compound hydrolyzed by human e-NPP1” value is recorded as “completely resistant to hydrolysis”. Regarding `[BH3-][P+](O)(OP(=O)(O)OC[C@H]1O[C@@H](n2cnc3c(N)ncnc32)[C@H](O)[C@@H]1O)OP(=O)(O)OP(=O)(O)OC[C@H]1O[C@@H](n2ccc(=O)[nH]c2=O)[C@H](O)[C@@H]1O` (some centres unmarked) [Analogue 8A, P^3-Borano-P^1,P^4-5′-uridine-5′-adenosinetetraphosphate], the concentration giving a half-maximal response (EC50) at tP2Y1 receptor is greater than 100000 nM. With `O=c1ccn([C@@H]2O[C@H](COP(=O)(O)OP(=O)(O)OP(=O)(O)O)[C@@H](O)[C@H]2O)c(=O)[nH]1` [UTP, uridine 5′-triphosphate], the EC50 in the series on P2Y2R is 15 nM. With `[BH3-][P+](O)(OP(=O)(O)OC[C@H]1O[C@@H](n2ccc(=O)[nH]c2=O)[C@H](O)[C@@H]1O)OP(=O)(O)OP(=O)(O)OC[C@H]1O[C@@H](n2ccc(=O)[nH]c2=O)[C@H](O)[C@@H]1O` (some centres unmarked) [Analogue 7A, P^2-Borano-P^1,P^4-di(5′-uridine)tetraphosphate], the 50% effective concentration (EC50) at tP2Y1 receptor is greater than 100000 nM. Consider `CSc1nc(N)c2ncn([C@@H]3O[C@H](COP(=O)(O)OP(=O)(O)O)[C@@H](O)[C@H]3O)c2n1` [Analogue 2-SMe-ADP], for which, on rP2Y1-GFP receptor, the concentration for a half-maximal effect (EC50) was 100 nM.

`BP(=O)(OC[C@H]1O[C@@H](n2cnc3c(N)ncnc32)[C@H](O)[C@@H]1O)OP(=O)(O)OP(=O)(O)OC[C@H]1O[C@@H](n2cnc3c(N)ncnc32)[C@H](O)[C@@H]1O` (some centres unmarked) [Analogue 10A, P^1-Borano-P^1,P^3-5′-diadenosinetriphosphate]: on human e-NPP1, the “percentage of the compound hydrolyzed by human e-NPP1” value is recorded as “completely resistant to hydrolysis”.

`[BH3-][P+](O)(OP(=O)(O)OC[C@H]1O[C@@H](n2cnc3c(N)ncnc32)[C@H](O)[C@@H]1O)OP(=O)(O)OP(=O)(O)OC[C@H]1O[C@@H](n2ccc(=O)[nH]c2=O)[C@H](O)[C@@H]1O` (some centres unmarked) [Analogue 8, P^3-Borano-P^1,P^4-5′-uridine-5′-adenosinetetraphosphate]: on tP2Y1 receptor (listed as Ap4(β-B)U), the “EC50 for [Ca2+]i elevation, P2Y1” value was “inactive”. As for `BP(=O)(OC[C@H]1O[C@@H](n2ccc(=O)[nH]c2=O)[C@H](O)[C@@H]1O)OP(=O)(O)OP(=O)(O)OP(=O)(O)OC[C@H]1O[C@@H](n2ccc(=O)[nH]c2=O)[C@H](O)[C@@H]1O` (some centres unmarked) [Analogue 13A, P^1-Borano-P^1,P^4-5′-diuridinetetraphosphate], the concentration for a half-maximal effect (EC50) on tP2Y1 receptor was greater than 100000 nM.
